From patent US20090176866A1, “Complexes having adjuvant activity” (priority 2004, published 2009)

Columns and labels:
human red blood cells = assay: Red blood cell lysis; type: cell-based; conditions: 24 h incubation; 3 donors
Procedure: A 2% v/v solution of human red blood cells was prepared in RPMI 1640. […] A 1% solution of Triton X-100 was used as a positive reference for 100% cell lysis. Dextran and poly-L lysine were used as negative and positive controls respectively. An equal volume of the sample and red blood cells were aliquoted into a 96 well microbtre plate and incubated at 37° C. After 1 h and after 24 h, each sample was centrifuged (2,000 g, 10 min) and the supernatant added to a 96 well microtitre plate. The absorbance was measured at 490 nm using a spectrophotometer. The degree of lysis was expressed as a percentage of the 100% lysis caused by Triton X-100.
Lyophilised amphotericin B-PMMA-Na was stored at 4° C. under argon for 4 months. It was also solubilised in 5% dextrose at a concentration of 1 mg/ml and stored at 4° C. for 7 months under argon.
Freshly prepared, clinical grade amphotericin B was used as a reference for the comparison. Incubations were undertaken for 1 h and 6 h.

[1] = tested on: intracellular Leishmania mexicana amastigotes; assay: Inhibition of intracellular Leishmania mexicana amastigote growth in human monocyte derived macrophages (infection index); type: cell-based; conditions: 72 h at 32° C.
Procedure: (§1) Leishmania mexicana amastigotes were used to infect human monocyte derived macrophages that were maintained in RPMI 1640 (Invitrogen) supplemented with 10% human serum (heat inactivated at 56° C. for 1 hour) and 200 IU/ml penicillin and 200 μg/ml streptomycin. The cells were plated at 10^6 cells/ml into Lab-Tek Chamber Slides (Nunc) and incubated at 37° C./5% CO2 for 3 days. The media was then aspirated from the chamber slides and an equal volume of fresh media added back in which the amastigote concentration had been adjusted to give a parasite:cell infection ratio of 5:1. The cells were then incubated at 32° C. for 20 h to enable infection of the macrophages to become established. Media was then aspirated from the chamber slides and replaced with doubling dilutions of the test compound. The cells were then incubated at 32° C. for 72 h. After washing with PBS, the chambers were detached, the slides allowed to dry and then fixed in methanol. Each slide was then stained with Giemsa and examined microscopically. A total of 250 cells were counted to determine the number of infected and uninfected cells.
(§2) The infection index was calculated as the average number of parasites/cell multiplied by the percentage of infected cells.

[2] = tested on: Leishmania mexicana promastigotes; assay: Viability of Leishmania mexicana promastigotes (MTT); type: cell-based; conditions: 24 h + 24 h MTT at 26° C.
Procedure: (§3) Leishmania mexicana promastgotes were used for these experiments. They were maintained in Schneider's Drosophila growth medium (Invitrogen) supplemented with 15% fetal calf serum (heat inactivated at 56° C. for 1 hour) and gentamicin (1 mg/100 ml). The parasite concentration was adjusted to 2×10^6 parasites/ml. Doubling dilutions of the test compound were prepared at twice the desired final concentration in growth media. An equal volume of the drug and the parasite suspension were then mixed in a 96 well plate and incubated for 24 h at 26° C. At this time, MTT (5 mg/ml) was added and the plate incubated for a further 24 h at 26° C. The plate was then centrifuged (2000 g, 5 min), the supernatant discarded and the pellet resuspended in 100 μl DMSO. Absorbance was measured at 570 nm using a spectrophotometer. The results were expressed as the percentage viability of the promastigotes with 100% viability being determined using the OD of the untreated, replicating promastigotes in the control wells.

[3] = tested on: Leishmania donovani promastigotes; assay: Viability of Leishmania donovani promastigotes (MTT); type: cell-based; conditions: 24 h + 24 h MTT at 26° C.
Procedure: as §3, with “donovania promastigotes” for “mexicana promastgotes”, “Growth Media 199” for “Drosophila growth medium (Invitrogen)”

[4] = tested on: intracellular Leishmania donovani amastigotes; assay: Inhibition of intracellular Leishmania donovani amastigote growth in human monocyte derived macrophages (infection index); type: cell-based; conditions: 72 h at 32° C.
Procedure: as §1, with “donovani” for “mexicana”
as §2

[5] = tested on: Leishmania donovani amastigotes; assay: Mouse model of visceral leishmaniasis (liver parasite burden); type: in vivo, BALB/c mice
Procedure: Leishmania donovani strain (MHOM/ET/67/L82) amastigotes were collected from the spleens of heavily infected donor Syrian Hamsters-Mesocritetus auratus. An inoculum containing 7.5-10×10^7 amastigotes/mL was prepared. Female BALB/c mice (20 g) that were specified pathogen free were infected intravenously with 200 μL (equivalent to 1.5-2×10^7 amastigotes) on day 0. The end point of infection was evaluated by microscopic reading on day 14 to check for the level of infection in one mouse, and on day 21 post-infection of Giemsa stained liver impressions to determine the total parasite burden.
The following compounds were administered intravenously according to the following regimens:—
There were 5 animals in each group. […] All drug preparations were filtered using a […] syringe filter. The intravenous volume of injection was 200 μL per injection.
Groups of mice were weighed before and after treatment as a measure of toxicity and the percentage weight change noted. On day 21 after infection (which was 3 days after the completion of treatment), the parasite burden was determined microscopically from methanol fixed liver impression slides stained with 10% Giemsa. The number of amastigotes/500 liver cells were counted microscopically and the results expressed as a percentage of the untreated control.

visceral leishmaniasis = conditions: intravenous, daily or every other day, 15-20 infusions at 0.75-1 mg/kg/day; cited from earlier work

C[C@@H]1[C@H](O)[C@@H](C)/C=C/C=C/C=C/C=C/C=C/C=C/C=C/[C@H](O[C@@H]2O[C@H](C)[C@@H](O)[C@H](N)[C@@H]2O)C[C@@H]2O[C@](O)(C[C@@H](O)C[C@@H](O)[C@H](O)CC[C@@H](O)C[C@@H](O)CC(=O)O[C@H]1C)C[C@H](O)[C@H]2C(=O)O [clinical grade amphotericin B, amphotericin B]
red cell lysis (toxicity) (human red blood cells): 100%
50% inhibition of intracellular amastigote growth [1]: 0.14 µg/mL
90% inhibition of intracellular amastigote growth [1]: 0.95 µg/mL
90% lethal dose (LD90) [2]: 1.49 µg/mL
90% lethal dose (LD90) [3]: 1.91 µg/mL
50% inhibition of intracellular amastigote growth [4]: 0.54 µg/mL
90% inhibition of intracellular amastigote growth [4]: 2.31 µg/mL
killing activity of Leishmania donovani amastigotes compared to the controls ([5]; 1 mg/kg i.v. days 14, 16 and 18, liver, day 21, P<0.0001): significant killing activity
anti-leishmanial activities compared with each other ([5]; clinical grade amphotericin B, Ambisome, amphotericin B-PMAA-Na (2 mg/kg), P<0.05 as printed): not significantly different from each other
Long-term cure rates (visceral leishmaniasis): 97%
